According to the NIST ThermoML archive (doi:10.1016/j.jct.2019.05.015):
Values joined by “and” are separate entries in the source; they are usually repeats but may differ in a detail not shown here. Equal entries are not always repeated. Numbers after ± are expanded uncertainties.

Key:
[1] = for Normal melting temperature: Crystal, DTA; for Glass transition temperature: DSC
[2] = Molar enthalpy of transition or fusion; conditions: Crystal; DSC
[3] = molar heat capacity at constant pressure; conditions: 101.33 kPa, DSC

## Nc1cccc(N)c1 [1,3-benzenediamine]
[1]
  Normal melting temperature: 63.0 ± 0.4 °C
  Glass transition temperature: -29 ± 2 °C
[2]
  Molar enthalpy of transition or fusion: 15.5 ± 0.59 kJ/mol
[3]; 223 K, Crystal
  molar heat capacity at constant pressure: 108.9 ± 5 J/K/mol
[3]; 243 K, Crystal
  molar heat capacity at constant pressure: 121.4 ± 5.6 J/K/mol
[3]; 253 K, Metastable liquid
  molar heat capacity at constant pressure: 207.5 ± 8.1 J/K/mol
[3]; 263 K, Crystal
  molar heat capacity at constant pressure: 133.8 ± 6 J/K/mol
[3]; 273 K, Metastable liquid
  molar heat capacity at constant pressure: 213.4 ± 8.3 J/K/mol
[3]; 283 K, Crystal
  molar heat capacity at constant pressure: 146.2 ± 6.5 J/K/mol
[3]; 293 K, Metastable liquid
  molar heat capacity at constant pressure: 219.3 ± 8.5 J/K/mol
[3]; 303 K, Crystal
  molar heat capacity at constant pressure: 158.7 ± 7 J/K/mol
[3]; 313 K, Metastable liquid
  molar heat capacity at constant pressure: 225.2 ± 8.7 J/K/mol
[3]; 323 K, Metastable liquid
  molar heat capacity at constant pressure: 229.7 ± 8.9 J/K/mol
[3]; 333 K, Metastable liquid
  molar heat capacity at constant pressure: 231.2 ± 9 J/K/mol
[3]; 343 K, Liquid
  molar heat capacity at constant pressure: 234 ± 9.1 J/K/mol
[3]; 353 K, Liquid
  molar heat capacity at constant pressure: 237.1 ± 9.2 J/K/mol
[3]; 363 K, Liquid
  molar heat capacity at constant pressure: 240.2 ± 9.3 J/K/mol

## Oc1cccc(O)c1 [1,3-benzenediol]
[1]
  Normal melting temperature: 109.1 ± 0.4 °C
[2]
  Molar enthalpy of transition or fusion: 20.1 ± 0.47 kJ/mol
[3]; 233 K, Crystal
  molar heat capacity at constant pressure: 103.9 ± 4.2 J/K/mol
[3]; 253 K, Crystal
  molar heat capacity at constant pressure: 114.4 ± 4.6 J/K/mol
[3]; 273 K, Crystal
  molar heat capacity at constant pressure: 124.9 ± 4.9 J/K/mol
[3]; 293 K, Crystal
  molar heat capacity at constant pressure: 135.3 ± 5.3 J/K/mol
[3]; 303 K, Metastable liquid
  molar heat capacity at constant pressure: 237.2 ± 9.7 J/K/mol
[3]; 313 K, Crystal
  molar heat capacity at constant pressure: 145.8 ± 5.7 J/K/mol
[3]; 323 K, Metastable liquid
  molar heat capacity at constant pressure: 245.8 ± 10 J/K/mol
[3]; 333 K, Crystal
  molar heat capacity at constant pressure: 156.3 ± 6.1 J/K/mol
[3]; 343 K, Metastable liquid
  molar heat capacity at constant pressure: 254.3 ± 10 J/K/mol
[3]; 363 K, Metastable liquid
  molar heat capacity at constant pressure: 262.9 ± 11 J/K/mol

## Oc1ccc2c(O)cccc2c1 [1,6-dihydroxynaphthalene]
[1]
  Normal melting temperature: 137.1 ± 0.4 °C
  Glass transition temperature: 32 ± 2 °C
[2]
  Molar enthalpy of transition or fusion: 25.8 ± 0.78 kJ/mol
[3]; 218 K, Glass
  molar heat capacity at constant pressure: 131.4 ± 6.5 J/K/mol
[3]; 238 K, Glass
  molar heat capacity at constant pressure: 147.4 ± 7.1 J/K/mol
[3]; 243 K, Crystal
  molar heat capacity at constant pressure: 149.1 ± 6.1 J/K/mol
[3]; 258 K, Glass
  molar heat capacity at constant pressure: 163.5 ± 7.7 J/K/mol
[3]; 263 K, Crystal
  molar heat capacity at constant pressure: 161.4 ± 6.6 J/K/mol
[3]; 283 K, Crystal
  molar heat capacity at constant pressure: 173.7 ± 7.1 J/K/mol
[3]; 303 K, Crystal
  molar heat capacity at constant pressure: 186 ± 7.6 J/K/mol
[3]; 323 K, Crystal
  molar heat capacity at constant pressure: 197.9 ± 7.7 J/K/mol and 198.4 ± 8 J/K/mol
[3]; 323 K, Metastable liquid
  molar heat capacity at constant pressure: 311.2 ± 14 J/K/mol
[3]; 343 K, Crystal
  molar heat capacity at constant pressure: 210.6 ± 8.2 J/K/mol and 210.7 ± 8.4 J/K/mol
[3]; 343 K, Metastable liquid
  molar heat capacity at constant pressure: 315.6 ± 14 J/K/mol
[3]; 363 K, Crystal
  molar heat capacity at constant pressure: 223.2 ± 8.6 J/K/mol and 223 ± 8.8 J/K/mol
[3]; 363 K, Metastable liquid
  molar heat capacity at constant pressure: 319.9 ± 15 J/K/mol
[3]; 383 K, Crystal
  molar heat capacity at constant pressure: 235.9 ± 9.1 J/K/mol
[3]; 383 K, Metastable liquid
  molar heat capacity at constant pressure: 324.3 ± 15 J/K/mol
[3]; 403 K, Metastable liquid
  molar heat capacity at constant pressure: 328.7 ± 15 J/K/mol

## Nc1cccc2ccccc12 [1-naphthalenamine]
[1]
  Normal melting temperature: 48.2 ± 0.4 °C
[2]
  Molar enthalpy of transition or fusion: 14.5 ± 0.46 kJ/mol

## Oc1cccc2ccccc12 [1-naphthol]
[1]
  Normal melting temperature: 94.8 ± 0.4 °C
[2]
  Molar enthalpy of transition or fusion: 21.9 ± 0.5 kJ/mol

## Oc1ccc2ccccc2c1 [2-hydroxynaphthalene]
[1]
  Normal melting temperature: 121.2 ± 0.4 °C
[2]
  Molar enthalpy of transition or fusion: 22.4 ± 0.58 kJ/mol

## Nc1ccc2ccccc2c1 [2-naphthalenamine]
[1]
  Normal melting temperature: 109.5 ± 0.4 °C
[2]
  Molar enthalpy of transition or fusion: 22.2 ± 0.56 kJ/mol

## Nc1ccc(Cl)cc1 [4-chlorobenzenamine]
[1]
  Normal melting temperature: 70 ± 0.4 °C
[2]
  Molar enthalpy of transition or fusion: 19.7 ± 0.82 kJ/mol

## Cc1ccc(O)cc1 [4-methylphenol]
[1]
  Normal melting temperature: 34.8 ± 0.4 °C
[2]
  Molar enthalpy of transition or fusion: 11.8 ± 0.45 kJ/mol
